In paper PMC7942396, “Drug Repurposing Screen for Compounds Inhibiting the Cytopathic Effect of SARS-CoV-2” (Frontiers in Pharmacology, 2021):
Counter-ions that a name gives are not always drawn. Like-named read-outs stand apart in the source and are kept apart here.

Experiments:
[1] = tested on: SARS-CoV-2 (USA_WA1/2020); experiment: microbe, parasite or virus in culture; assay type: cell-based; conditions: for EC50: read-out: CPE EC50
[2] = cytotoxicity counter-assay, Vero E6 cells without virus
[3] = read-out: Cytotox CC50, cytotoxicity counter-assay, Vero E6 cells without virus
[4] = SARS-CoV-2 CPE assay, Vero E6 cells, confirmed anti-SARS-CoV-2 compounds
[5] = SARS-CoV-2 CPE assay, Vero E6 cells, efficacy
[6] = SARS-CoV-2 CPE assay, Vero E6 cells
[7] = Vero E6 cells without virus, 72 h
[8] = […], DMSO 0%, no-virus control 100%, hit confirmation

Nc1ncnc2c1c(-c1cccc(OCc3ccccc3)c1)cn2C1CC(CN2CCCC2)C1 (stereo not shown) [ADW-742]
% Cytotox (Vero E6 cells; [2]): 106.8%
CC50 (Vero E6 cells; [3]): 12.6 µM
EC50 [1, 4]: 7.94 µM
CPE % Efficacy [1, 5]: 55.7%

CO/C1=C\C(C)=C\[C@@H](C)[C@@H](O)[C@@H](C)C/C(C)=C/C=C/[C@H](OC)[C@@H]([C@@H](C)[C@@H](O)[C@H](C)[C@@]2(O)C[C@@H](O)[C@H](C)[C@@H](C(C)C)O2)OC1=O [Bafilomycin A1 from Streptomyces griseus]
% Cytotox (Vero E6 cells; [2]): 58.6%
CC50 (Vero E6 cells; [3]): 0.1 µM
EC50 [1, 4]: 0.0113 µM
CPE % Efficacy [1, 5]: 69.3%

COc1ccc(C2CC(c3ccccc3)=NN2c2ccc(S(N)(=O)=O)cc2)cc1 (stereo not shown) [ML-141]
% Cytotox (Vero E6 cells; [2]): 23.8%
EC50 [1, 4]: 8.91 µM
CPE % Efficacy [1, 5]: 65.2%

NC(=O)c1ccccc1Nc1ccnc(Nc2cccc(O)c2)n1 [DB-07268]
% Cytotox (Vero E6 cells; [2]): 40.9%
CC50 (Vero E6 cells; [3]): 1 µM
EC50 [1, 4]: 10 µM
CPE % Efficacy [1, 5]: 52.8%

COc1cccc(NC[C@@H](O)Cn2c3ccc(Br)cc3c3cc(Br)ccc32)c1 [(R)-P7C3-Ome]
% Cytotox (Vero E6 cells; [2]): 32.2%
CC50 (Vero E6 cells; [3]): 11.2 µM
CPE % Efficacy [1, 6]: 63.4%
EC50 [1, 6]: 12.6 µM

O=c1[nH]c2ccccc2n1C1CCN(Cc2ccc(-c3nc4cc5nc[nH]c5cc4nc3-c3ccccc3)cc2)CC1 [Akt-I-1,2]
% Cytotox (Vero E6 cells; [2]): 34.2%
CC50 (Vero E6 cells; [3]): 12.6 µM
CPE % Efficacy [1, 6]: 91.3%
EC50 [1, 6]: 11.2 µM

CC1(N2CCC(n3c([C@@H]4CCCNC4)nc4ccccc43)CC2)CCCCCCC1 [MCOPPB, reference compound]
% Cytotox (Vero E6 cells; [7]): <30%
CPE % Efficacy [1, 8]: 85.6%
EC50 [1]: 3.5 µM

CC(C)(C)c1ccc(CN2CCN(C(c3ccccc3)c3ccc(Cl)cc3)CC2)cc1.Cl.Cl (stereo not shown) [Buclizine HCl]
% Cytotox (Vero E6 cells; [2]): 0.0%
CPE % Efficacy [1, 6]: 86.2%
EC50 [1, 6]: 14.1 µM

O=C(CCC1CCN(Cc2ccccc2)CC1)c1ccc2c(c1)NCCCC2.O=C(O)/C=C/C(=O)O [Zanapezil fumerate]
% Cytotox (Vero E6 cells; [2]): 0.0%
EC50 [1, 4]: 11.2 µM
CPE % Efficacy [1, 5]: 63.3%

COc1ccc(NC(=O)c2ccc(-c3ccc(-c4nnc(C)o4)cc3C)cc2)cc1N1CCN(C)CC1 [GMC 2-29, reference compound]
% Cytotox (Vero E6 cells; [7]): <30%
CPE % Efficacy [1, 8]: 117.2%
EC50 [1]: 7.9 µM

CC(C)(C)c1ccc(C(=O)Nc2cc(Cl)c(Br)cc2C(=O)O)cc1 [NCGC00386831]
% Cytotox (Vero E6 cells; [2]): 78.8%
CC50 (Vero E6 cells; [3]): 10 µM
EC50 [1, 4]: 11.2 µM
CPE % Efficacy [1, 5]: 32.0%

CC(C)C[C@H]1C(=O)O[C@H](Cc2ccc(N3CCOCC3)cc2)C(=O)N(C)[C@@H](CC(C)C)C(=O)O[C@H](C)C(=O)N(C)[C@@H](CC(C)C)C(=O)O[C@H](Cc2ccc(N3CCOCC3)cc2)C(=O)N(C)[C@@H](CC(C)C)C(=O)O[C@H](C)C(=O)N1C [Emodepside]
% Cytotox (Vero E6 cells; [2]): 32.2%
CC50 (Vero E6 cells; [3]): 8.91 µM
EC50 [1, 4]: 6.31 µM
CPE % Efficacy [1, 5]: 74.5%

CC(C)c1ccc(NC(=O)C(c2ccccc2)N(C)C(=O)Cc2c[nH]c3ccccc23)cc1 (stereo not shown) [PG-01]
% Cytotox (Vero E6 cells; [2]): 110.5%
EC50 [1, 4]: 3.55 µM
CPE % Efficacy [1, 5]: 98.0%

COc1cccc([C@@H](C)NCCCc2ccccc2Cl)c1 [NPS-R568]
% Cytotox (Vero E6 cells; [2]): 15.8%
CC50 (Vero E6 cells; [3]): 12.6 µM
EC50 [1, 4]: 11.2 µM
CPE % Efficacy [1, 5]: 78.0%

Cn1cc(-c2ccncc2)c(-c2ccc(OCc3ccc4ccccc4n3)cc2)n1 [MP-10]
% Cytotox (Vero E6 cells; [2]): 85.1%
EC50 [1, 4]: 4.47 µM
CPE % Efficacy [1, 5]: 31.1%

CCCCCCCCC(=O)N[C@H](CN1CCCC1)[C@H](O)c1ccc2c(c1)OCCO2 [Genz-123346 (free base), reference compound]
% Cytotox (Vero E6 cells; [7]): <30%
CPE % Efficacy [1, 8]: 99.4%
EC50 [1]: 10 µM

OCCCNc1cc(-c2ccnc(Nc3cccc(Cl)c3)n2)ccn1 [CGP-60474]
% Cytotox (Vero E6 cells): 61.3%
CC50 (Vero E6 cells): 0.11 µM
CPE % Efficacy [1]: 104.5%
EC50 [1]: 6.31 µM

CC(C)(O)CNc1ncc(-c2ccnc(Nc3ccncc3)n2)c(CC2CC2)n1 [VPS34 Inhibitor 1, reference compound]
% Cytotox (Vero E6 cells; [7]): <30%
CPE % Efficacy [1, 8]: 98.3%
EC50 [1]: 1.4 µM

CS(=O)(=O)O.Cc1ncc(NC(=O)c2ccc(CN3CCN(C)CC3)c(C(F)(F)F)c2)cc1Nc1nccc(-c2cccnc2)n1 [Flumatinib mesylate]
% Cytotox (Vero E6 cells; [2]): 11.1%
CC50 (Vero E6 cells; [3]): 4.47 µM
CPE % Efficacy [1, 6]: 134.3%
EC50 [1, 6]: 12.6 µM

Cc1ccc(NC(=O)C(C)C)cc1C1CCN(Cc2ccc(Oc3ccc(F)c(F)c3)cc2)CC1.Cl [SNAP 94847 hydrochloride]
% Cytotox (Vero E6 cells; [2]): 95.1%
CC50 (Vero E6 cells; [3]): 12.6 µM
EC50 [1, 4]: 4.47 µM
CPE % Efficacy [1, 5]: 60.0%

Cn1nnnc1Sc1ncnc2scc(-c3cccc(S(C)(=O)=O)c3)c12 [NCGC00182390]
% Cytotox (Vero E6 cells; [2]): 63.9%
CC50 (Vero E6 cells; [3]): 8.91 µM
EC50 [1, 4]: 4.47 µM
CPE % Efficacy [1, 5]: 57.8%

Cc1nc2ccc(Oc3ccc(F)cc3)cc2c(=O)n1C[C@H]1CCCN(C(C)C)C1 [YIL 781]
% Cytotox (Vero E6 cells; [2]): 0.0%
CPE % Efficacy [1, 6]: 53.5%
EC50 [1, 6]: 11.2 µM

CCCCN1[C@@H]2CC[C@H]1CC(OC(c1ccc(F)cc1)c1ccc(F)cc1)C2.Cl (stereo partly shown) [JHW 007 hydrochloride]
% Cytotox (Vero E6 cells; [2]): 38.8%
CC50 (Vero E6 cells; [3]): 12.6 µM
EC50 [1, 4]: 7.08 µM
CPE % Efficacy [1, 5]: 87.4%

Cc1cnc(NC(=O)c2cc(S(=O)(=O)N(C)C)ccc2N2CCCC2)s1 [ML414, reference compound]
% Cytotox (Vero E6 cells; [7]): <30%
EC50 [1]: 3.2 µM

Cc1ncc(NC(=O)c2cccc(C(F)(F)F)c2)cc1-c1cnc(OC2CCOCC2)c(N2CCOCC2)c1 [RAF-709]
% Cytotox (Vero E6 cells; [2]): 56.6%
CC50 (Vero E6 cells; [3]): 8.91 µM
CPE % Efficacy [1, 6]: 58.4%
EC50 [1, 6]: 14.1 µM

CCC(C)C(=O)OC1CC(O)C23C4OCC5(C(O)CC2C1(C)C(O)O4)C3C(=O)CC1(C)C(c2ccoc2)CC2OC215 (stereo not shown) [NCGC00381227]
% Cytotox (Vero E6 cells; [2]): 53.1%
CC50 (Vero E6 cells; [3]): 7.8 µM
EC50 [1, 4]: 3.91 µM
CPE % Efficacy [1, 5]: 82.9%

OC(CNc1ccccc1)Cn1c2ccc(Br)cc2c2cc(Br)ccc21 (stereo not shown) [P7C3]
% Cytotox (Vero E6 cells; [2]): 54.5%
CC50 (Vero E6 cells; [3]): 11.2 µM
EC50 [1, 4]: 3.98 µM
CPE % Efficacy [1, 5]: 65.2%

Cc1cc(CC(C)CC(C)(C)C)n(O)c(=O)c1.NCCO (stereo not shown) [Piroctone Olamine]
% Cytotox (Vero E6 cells; [2]): 46.6%
CC50 (Vero E6 cells; [3]): 1.78 µM
EC50 [1, 4]: 4.47 µM
CPE % Efficacy [1, 5]: 61.2%

CN1CN(c2ccccc2)C2(CCN(CCCC(=O)c3ccc(F)cc3)CC2)C1=O.Cl [N-Methylspiperone hydrochloride, reference compound]
% Cytotox (Vero E6 cells; [7]): <30%
CPE % Efficacy [1, 8]: 80.0%
EC50 [1]: 4.5 µM

Cc1nnc(-c2ccc(-c3ccc(C(=O)Nc4ccc(O)c(N5CCN(C)CC5)c4)cc3)c(C)c2)o1 [GMC 2-113, reference compound]
% Cytotox (Vero E6 cells; [7]): <30%
CPE % Efficacy [1, 8]: 129.7%
EC50 [1]: 10 µM

O=S(=O)(c1cccc2c(I)cccc12)N1CCCNCC1 [ML-7]
% Cytotox (Vero E6 cells; [2]): 20.3%
CC50 (Vero E6 cells; [3]): 19.9 µM
CPE % Efficacy [1, 6]: 36.2%
EC50 [1, 6]: 12.6 µM

O=C(NCCCCN1CCN(c2cccc(Cl)c2Cl)CC1)c1cc2ccccc2s1 [FAUC-365]
% Cytotox (Vero E6 cells; [2]): 35.5%
CC50 (Vero E6 cells; [3]): 12.6 µM
EC50 [1, 4]: 4.47 µM
CPE % Efficacy [1, 5]: 36.5%

O=S(=O)(c1cccc2c(Cl)cccc12)N1CCCNCC1 [ML-9]
% Cytotox (Vero E6 cells; [2]): 23.3%
CC50 (Vero E6 cells; [3]): 11.2 µM
CPE % Efficacy [1, 6]: 91.0%
EC50 [1, 6]: 12.6 µM

CC[C@H](NC(=O)[C@H](CS(=O)(=O)CC1CC1)N[C@@H](c1ccc(F)cc1)C(F)(F)F)C(=O)C(=O)NC1CC1 [VBY-825, reference compound]
% Cytotox (Vero E6 cells; [7]): <30%
CPE % Efficacy [1, 8]: 97.8%
EC50 [1]: 0.14 µM

C[C@@H]1CN(CC(=O)N2CC(C)(C)c3ncc(Cc4ccc(F)cc4)cc32)[C@@H](CN2CCOC[C@H]2C)CN1 [AT-IAP]
% Cytotox (Vero E6 cells; [2]): 0.0%
CPE % Efficacy [1, 6]: 56.2%

Cl.Oc1ccc2c3c1O[C@H]1c4[nH]c5ccc(N=C=S)cc5c4C[C@@]4(O)[C@@H](C2)N(CC2CC2)CC[C@]314 [Naltrindole isothiocyanate hydrochloride, reference compound]
% Cytotox (Vero E6 cells; [7]): <30%
CPE % Efficacy [1, 8]: 114.7%
EC50 [1]: 10 µM

COc1cc2c3cc1Oc1c(OC)c(OC)cc4c1[C@@H](Cc1ccc(O)c(c1)Oc1ccc(cc1)C[C@@H]3N(C)CC2)N(C)CC4 [Berbamine dihydrochloride]
% Cytotox (Vero E6 cells; [2]): 50.1%
CC50 (Vero E6 cells; [3]): 11.2 µM
EC50 [1, 4]: 2.82 µM
CPE % Efficacy [1, 5]: 79.0%

Cc1c(C(=O)Nc2cccc(C(F)(F)F)c2)cc(-c2ccccc2)n1CCCN1CCOCC1 [HC-067047]
% Cytotox (Vero E6 cells; [2]): 45.7%
EC50 [1, 4]: 10 µM
CPE % Efficacy [1, 5]: 64.2%

CC1(CN2CCC(n3c(=O)[nH]c4ccccc43)CC2)OCc2ccccc2-n2cccc21.O=C(O)/C=C\C(=O)O (stereo not shown) [Zaldaride maleate]
% Cytotox (Vero E6 cells; [2]): 0.0%
EC50 [1, 4]: 11.2 µM
CPE % Efficacy [1, 5]: 81.7%

CN(C)C(=O)COC(=O)Cc1ccc(OC(=O)c2ccc(NC(=N)N)cc2)cc1 [camostat, reference compound]
Activity in the Vero E6 assay [1]: not active

CCCCCCCc1ccc(CCc2cccc(O)c2C(=O)O)cc1 [MG-149]
% Cytotox (Vero E6 cells; [2]): 23.4%

CCC(C)CNCC(=O)N1CCc2sccc2C1COc1cccc(C)c1.Cl (stereo not shown) [RU-SKI 43 (hydrochloride)]
% Cytotox (Vero E6 cells; [2]): 21.4%
CC50 (Vero E6 cells; [3]): 8.91 µM

CN(C)CCCN1c2ccccc2Sc2ccc(C(F)(F)F)cc21 [Triflupromazine hydrochloride]
EC50 ([1]; Severe acute respiratory syndrome coronavirus 2, Vero C1008, SARS-CoV-2 CPE assay, Vero E6 cells, confirmed anti-SARS-CoV-2 compounds): 10 µM
Emax ([1]; Severe acute respiratory syndrome coronavirus 2, Vero C1008, SARS-CoV-2 CPE assay, Vero E6 cells, efficacy, read-out: CPE % Efficacy): 77.3%

N=C(N)Nc1ccc(C(=O)Oc2ccc3cc(C(=N)N)ccc3c2)cc1 [nafamstat, reference compound]
Activity in the Vero E6 assay [1]: not active

Oligomycin A
EC50 [1, 4]: 3.98 µM
CPE % Efficacy [1, 5]: 104.5%
